The results in this text go back to US20120107284A1, “Stem cells for transplantation and methods for production thereof” (priority 2006, published 2012).

Assay [1] deals with Renilla luciferase controlled by rtTA2^s-M24C5G. The assay can be described thus: Dual Tet-system reporter assay, Renilla luciferase, HeLa HLRF33/1141 cotransfected with cTA2D-5 and rtTA2s-M24C5G. Format: cell-based. The following applies: HeLa cells (HLRF33/1141), 24 h incubation, 1 μg/ml. The procedure: (§1) B: Regulatory properties. HeLa cells (HLRF33/1141) were cotransfected with two plasmids encoding the transregulators cTA2^D-5 and rtTA2^s-M24C5G. Reporter gene expression was scored after 24 h incubation with 1 μg/ml of either cmt3 or dox or both. Luciferase activities were determined from cell extracts and represent the means of triplicate samples with standard deviations given in arbitrary light units (ALU; defined as relative light units per mg of total cell protein corrected for transfection efficiency). Expression of Renilla luciferase controlled by rtTA2^s-M24C5G is increased about 1000-fold and only in the presence of dox (columns 3 and 4). Addition of cmt3 leads to a ˜100-fold decrease in firefly luciferase activity, controlled by cTA2^D-5 (columns 2 and 4), while expression of firefly luciferase is only slightly, less than 2-fold, reduced in the presence of dox. […] The regulatory system is thus functional and can be used for target gene expression in NCSCs.
(§2) Recently two transcription factors have been constructed—cTA2^D-5 and rtTA2^s-M24C5G—with exclusive specificities for DNA binding (wt TRE/4C5G TRE), effector recognition (cmt3/dox) and homodimer formation (class D/class B) (Dr. Christian Berens, Erlangen University). All these components were tested for the first time in eukaryotic cells to determine their regulatory properties (C. Berens, unpublished). […]

Assay [2] relates to dorsal root ganglion neurons. Put plainly: Functionality of the Tet-system in vivo: DOX to pregnant Sox10-rtTA mice mated with TRE-Aml1/Runx1 males. The note with it: [Sox10-rtTA+TRE-Aml1/Runx1] pups; DOX in drinking water during pregnancy days 7-8 and 11.5-14. The text has this: FIG. 8. Abnormalities in offspring of pregnant Sox10-rtTA mice which had been mated with TRE-Aml1/Runx1 males and treated with DOX during pregnancy days 7-8 and 11.5-14. Pups with the genotype [Sox10-rtTA+TRE-Aml1/Runx1] are smaller than normal and display pigment defects (upper left), megacolon (lower left), and a reduced size of dorsal root ganglia (upper and lower right).
FIG. 9. The number of dorsal root ganglion neurons is reduced compared to control (1) by about 50% in [Sox10-rtTA+TRE-Aml1/Runx1] pups from Sox10-rtTA mice, which hade been mated with TRE-Aml1/Runx1 males, and treated with DOX during pregnancy days 7-8 and 11.5-14 (2).
The functionality of the Tet-system in vivo was first confirmed. Sox10-rtTA female mice were bred with TRE-Aml1A/Runx1 males and DOX was given in the drinking water to the pregnant females pregnancy days 7 to 8 and 11.5 to 14, which correspond to the period NCSC migration. […] The number of DRG neurons was reduced by about 50% (FIG. 9).

The test system of assay [3] is firefly luciferase activity, controlled by cTA2^D-5. Put plainly: Dual Tet-system reporter assay, firefly luciferase, HeLa HLRF33/1141 cotransfected with cTA2D-5 and rtTA2s-M24C5G. Format: cell-based. The following applies: HeLa cells (HLRF33/1141), 24 h incubation, 1 μg/ml. The procedure: as §1, §2

For `C[C@H]1c2cccc(O)c2C(=O)C2=C(O)[C@]3(O)C(=O)C(C(N)=O)=C(O)[C@@H](N(C)C)[C@@H]3[C@@H](O)[C@@H]21` [DOX, doxycycline], the “Increase in expression of Renilla luciferase controlled by rtTA2^s-M24C5G” value in assay [1] is recorded as “about 1000 fold”. Also, the “Reduction of the number of dorsal root ganglion neurons compared to control” value in assay [2] is “about 50%”. Further, the “Decrease in firefly luciferase activity controlled by cTA2^D-5” value in assay [3] is reported as “less than 2 fold”.

In the case of `NC(=O)C1=C(O)C[C@@H]2C[C@@H]3Cc4cccc(O)c4C(=O)C3=C(O)[C@]2(O)C1=O` [cmt3], in assay [3], the “Decrease in firefly luciferase activity controlled by cTA2^D-5” value is roughly 100 fold.
